Measured values from US20060025344A1, “Ghrelin receptor inverse agonists for regulation of feeding behaviors” (7TM Pharma A/S, priority 2002, published 2006).
Entries after “also recorded” stand apart in the source; their conditions may differ. Non-standard residues stand in square brackets, D forms with d. Residues, ends and D or L forms follow the SMILES beside them.

What was measured:
human ghrelin receptor = human ghrelin receptor (Homo sapiens, UniProt Q92847); test: Inverse agonism on basal, constitutive signalling measured by inositol phosphate turnover in transiently transfected COS-7 cells; format: cell-based; details: wild-type ghrelin receptor; for IC50: IP turnover
Sequence of human ghrelin receptor (Q92847 whole entry): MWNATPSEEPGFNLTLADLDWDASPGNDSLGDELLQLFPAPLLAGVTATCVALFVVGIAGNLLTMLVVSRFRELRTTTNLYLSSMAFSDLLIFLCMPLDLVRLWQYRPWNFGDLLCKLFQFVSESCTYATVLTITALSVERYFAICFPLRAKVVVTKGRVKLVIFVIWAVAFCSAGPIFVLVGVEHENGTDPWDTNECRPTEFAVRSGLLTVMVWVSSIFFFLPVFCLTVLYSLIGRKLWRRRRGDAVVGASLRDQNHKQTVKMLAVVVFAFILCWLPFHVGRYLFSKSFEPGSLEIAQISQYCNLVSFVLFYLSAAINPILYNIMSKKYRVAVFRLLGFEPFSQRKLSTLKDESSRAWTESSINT
Procedure: Cells were transfected with Lipofectamine 2000 (Life Technologies).
(§1) Cells were washed twice in buffer, 20 mM HEPES, pH 7.4, supplemented with 140 mM NaCl, 5 mM KCl, 1 mM MgSO4, 1 mM CaCl2, 10 mM glucose, 0.05% (w/v) bovine serum; and were incubated in 0.5 ml buffer supplemented with 10 mM LiCl at 37 °C. for 30 min. […] Determinations were made in duplicates.

[1] = molecular target: metal-ion site engineered ghrelin receptor (V:01 and V:05 substituted with His) (Homo sapiens, UniProt Q92847, L209H/M213H); test: Inverse agonism on basal inositol phosphate turnover in the metal-ion site engineered receptor; format: cell-based
Sequence of metal-ion site engineered ghrelin receptor (V:01 and V:05 substituted with His) (Q92847 whole entry L209H/M213H): as the sequence (Q92847 whole entry) above, with L209H, M213H counted along it
Procedure: as §1
Metal-ion site engineering has previously been used as a molecular probe for both antagonism, agonism and inverse agonism (Elling et al., 1995; Elling et al., 1999; Rosenkilde et al., 1999). Here we built a metal-ion binding site into the ghrelin receptor by substituting residues V:01 and V:05 with His residues. 125 l-ghrelin bound with normal high affinity to the metal-ion site engineered receptor and ghrelin could stimulate IP turnover with a potency and efficacy as in the wild-type receptor (data not shown). […] A similar result has been obtained in the HHV8 encoded constitutively active ORF-74 receptor (Rosenkilde et al., 1999). […] This is important for the invention since the invention is aimed at small molecule, preferentially non-peptide compounds which will serve as inverse agonists against the receptor and most of these will conceivably as the majority of small molecule drugs in general in 7TM G protein coupled receptor bind in between the extracellular ends of the transmembrane segments.

NK1 receptor = NK1 receptor (Homo sapiens, UniProt P25103); test: Block of SP induced accumulation of IP in COS-7 cells transiently transfected with the NK1 receptor; format: cell-based; details: data not shown
Sequence of NK1 receptor (P25103 whole entry, species assumed): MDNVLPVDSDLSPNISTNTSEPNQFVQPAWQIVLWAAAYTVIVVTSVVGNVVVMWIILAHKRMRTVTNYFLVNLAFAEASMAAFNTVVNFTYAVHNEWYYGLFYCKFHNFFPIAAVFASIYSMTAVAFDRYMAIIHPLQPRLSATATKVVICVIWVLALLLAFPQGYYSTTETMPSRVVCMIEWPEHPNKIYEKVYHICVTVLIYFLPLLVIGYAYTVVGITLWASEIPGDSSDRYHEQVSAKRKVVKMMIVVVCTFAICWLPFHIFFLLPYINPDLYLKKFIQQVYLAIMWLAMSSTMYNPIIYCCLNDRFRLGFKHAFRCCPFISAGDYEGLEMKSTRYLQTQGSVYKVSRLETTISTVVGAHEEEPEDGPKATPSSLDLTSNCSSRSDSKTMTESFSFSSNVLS

bombesin receptor 1 = details: according to the literature; cited from earlier work
[2] = system: lean mice, mice with diet induced obesity, ob/ob obese mice; details: cited from earlier work

[Zn+2] [Zn(II)]
IC50 (human ghrelin receptor): 160 ± 70 µM | IC50 ([1]; metal ion site engineered receptor, IP turnover, read-out: IC50 for inverse agonism on basal, constitutive signalling): 4.3 ± 0.2 µM | efficacy as inverse agonist (in words) ([1]; metal-ion site engineered receptor): full inverse agonist

CC(C)C[C@H](NC(=O)[C@H](CC(C)C)NC(=O)[C@@H](Cc1c[nH]c2ccccc12)NC(=O)[C@H](Cc1ccccc1)NC(=O)[C@@H](Cc1c[nH]c2ccccc12)NC(=O)[C@H](CCC(N)=O)NC(=O)[C@@H](Cc1ccccc1)NC(=O)[C@@H]1CCCN1C(=O)[C@H](CCCCN)NC(=O)[C@@H]1CCCN1C(=O)[C@H](N)CCCNC(=N)N)C(N)=O [[D-Arg^1, D-Phe^5, D-Trp^7,9, Leu^11]-Substance P] (H-[dR]PKP[dF]Q[dW]F[dW]LL-NH2; N-terminus and C-terminus assumed)
antagonist potency on the NK1 receptor (in words) (NK1 receptor): micromolar antagonist; also recorded: at micromolar concentrations also has effects | antagonist potency on the bombesin receptor (in words) (bombesin receptor 1): micromolar antagonist | energy intake / food intake ([2]; lean mice, diet induced obesity mice, ob/ob obese mice, repeated administrations for six days): decreased | rate of gastric emptying ([2]; mice): reduced | body weight gain ([2]; repeated administrations, obese ob/ob mice (normal and obese mice)): decreased | glycaemic control ([2]; repeated administrations, obese ob/ob mice): improved

O=C(O)CCc1ccc(-c2ccc(Br)cc2)n1-c1cccc(C(F)(F)F)c1 [TM27810, 3-[5-(4-Bromo-phenyl)-1-(3-trifluoromethyl-phenyl)-1H-pyrrol-2-yl]-propionic acid]
IC50 (human ghrelin receptor): 6.5 µM | efficacy as inverse agonist (in words) (human ghrelin receptor; absence of ghrelin): high efficacy inverse agonist; also recorded: efficiently decreases the constitutive signalling activity
